According to BindingDB's records for doi:10.1007/s00044-013-0771-5 (n/a, 2013):

Biological target: Prostaglandin G/H synthase 1/2 (Homo sapiens, UniProt P23219+P35354)
Assay: Inhibition of COX (unknown origin)

Sequence of Prostaglandin G/H synthase 1/2 (P35354 whole entry): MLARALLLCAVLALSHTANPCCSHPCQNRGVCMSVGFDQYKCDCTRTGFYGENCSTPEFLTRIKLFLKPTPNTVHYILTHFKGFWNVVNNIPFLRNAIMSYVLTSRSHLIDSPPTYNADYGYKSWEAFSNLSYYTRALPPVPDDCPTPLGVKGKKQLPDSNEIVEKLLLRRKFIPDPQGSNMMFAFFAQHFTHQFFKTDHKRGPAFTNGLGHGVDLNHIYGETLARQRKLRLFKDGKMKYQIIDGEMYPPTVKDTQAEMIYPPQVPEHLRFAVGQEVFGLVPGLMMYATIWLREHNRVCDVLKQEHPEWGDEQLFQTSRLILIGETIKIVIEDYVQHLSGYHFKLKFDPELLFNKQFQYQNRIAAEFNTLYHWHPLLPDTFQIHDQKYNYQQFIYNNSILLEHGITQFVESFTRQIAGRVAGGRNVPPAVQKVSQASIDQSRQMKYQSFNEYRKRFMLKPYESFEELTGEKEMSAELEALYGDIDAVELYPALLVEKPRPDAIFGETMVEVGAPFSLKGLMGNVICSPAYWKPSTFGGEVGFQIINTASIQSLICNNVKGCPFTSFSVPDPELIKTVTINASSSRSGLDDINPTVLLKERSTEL
Sequence of Prostaglandin G/H synthase 1/2 (P23219 whole entry): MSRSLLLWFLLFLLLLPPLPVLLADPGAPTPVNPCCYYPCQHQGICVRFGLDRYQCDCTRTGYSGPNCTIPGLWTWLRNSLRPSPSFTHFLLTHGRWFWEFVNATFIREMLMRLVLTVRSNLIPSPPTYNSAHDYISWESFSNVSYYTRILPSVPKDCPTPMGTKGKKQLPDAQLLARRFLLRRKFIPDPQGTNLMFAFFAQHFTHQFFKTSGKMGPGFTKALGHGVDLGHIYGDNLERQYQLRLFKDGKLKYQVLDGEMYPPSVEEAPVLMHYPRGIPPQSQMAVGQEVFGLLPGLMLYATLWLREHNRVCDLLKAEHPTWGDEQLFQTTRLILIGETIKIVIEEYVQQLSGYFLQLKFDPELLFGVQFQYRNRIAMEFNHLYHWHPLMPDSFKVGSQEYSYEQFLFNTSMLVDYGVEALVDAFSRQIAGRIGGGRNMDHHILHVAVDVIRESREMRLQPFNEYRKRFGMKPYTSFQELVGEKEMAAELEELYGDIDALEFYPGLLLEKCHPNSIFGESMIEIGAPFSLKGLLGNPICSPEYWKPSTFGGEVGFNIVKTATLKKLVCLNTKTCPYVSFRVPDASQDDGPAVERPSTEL

| IC50 | SMILES |
| --- | --- |
| 447 µM | O=C(O)Cc1cc(O)ccc1Nc1c(Cl)cccc1Cl [CHEBI:59612] |
| 912 µM | O=C(O)Cc1cc(O)ccc1Nc1c(Cl)cc(O)cc1Cl [CHEBI:223401] |
